In patent US10697024B2, “Methods of determining IMiDS resistance in plasma cell disorders” (The Charlotte Mecklenburg Hospital Authority, priority 2016, dated 2020):

test system: CD138-purified plasma cells; test: GEP-based pharmacogenomics of paired plasma cells prior to and 48 hours after an IMiD test dose; assay type: in vivo, human; settings: MM patients, bone marrow plasma cells, 48 hr after test dose vs. baseline, SAM analysis; Affymetrix U95Av2 (thalidomide 400 mg/d, lenalidomide 25 to 50 mg/d) or U133Plus2.0 (pomalidomide 4 mg/d)
Description: GEP-based pharmacogenomics of paired CD138-purified plasma cells, obtained from patients prior to and 48 hours after administration of test doses of Thal (42 newly diagnosed MM), Len (18 relapsed/refractory MM), or Pom (18 relapsed/refractory MM) were compared using significance analysis of microarrays (SAM).
Plasma cell purifications and GEP, using the Affymetrix U133 Plus 2.0 microarray, were performed as previously described (Ref: Zhan F, Huang Y, Colla S, et al. The molecular classification of multiple myeloma. Blood. 2006; 108:2020-2028.). Samples were hybridized to Affymetrix expression arrays. Affymetrix U133Plus2.0 arrays were used in the pomalidomide study and Affymetrix U95Av2 arrays were used for thalidomide and lenalidomide pharmacogenomics studies. Bone marrow samples from MM patients enrolled in pharmacogenomics study were obtained prior to, and 48 hours after administration of a test dose of thalidomide (n=42 newly diagnosed), lenalidomide (n=18 relapsed/refractory) or pomalidomide (n=18 relapsed refractory). Plasma cell isolation from mononuclear cell fraction was performed by immunomagnetic bead selection with monoclonal anti-human CD138 antibody using the AutoMACS automated separation system (Miltenyi-Biotec) as previously described. Isolated bone marrow plasma cells were processed and analyzed for Gene-expression profiling (GEP) according to previously reported methods. Samples were hybridized to an Affymetrix U133Plus2.0 microarray for pomalidomide study and to an Affymetrix U95Av2 microarray for thalidomide and lenalidomide studies according to the manufacturer's recommendations and then read on GeneChip Scanner 3000 (Affymetrix). The data files were deposited in the ArrayExpress archive under the accession number E-TABM-1138. […]

Row | Compound | Probe sets changed (p < 0.05) after 48 hr of IMiD treatment
1 | O=C1CCC(N2C(=O)c3ccccc3C2=O)C(=O)N1 (stereo not drawn) [Thalidomide, thalidomide] | 1398
2 | Nc1cccc2c1C(=O)N(C1CCC(=O)NC1=O)C2=O (stereo not drawn) [Pomalidomide, pomalidomide] | 4944
3 | Nc1cccc2c1CN(C1CCC(=O)NC1=O)C2=O (stereo not drawn) [Lenalidomide, lenalidomide] | 1304
